Like-named read-outs stand apart in the source and are kept apart here.
Experiment: Determination of metabolic stability in human liver microsomes
Format: in vitro ADME
Details: for half-life at 1 μM: pH 7.4, read-out: In vitro half-life t1/2 in human liver microsomes; for half-life at 1 μM / In vitro half-life t1/2 in human liver microsomes: 0.5 mg/mL human liver microsomes, 1 μM test compound, 2 mM NADPH, 37° C., 0-30 minutes; for stabilization in comparison to undeuterated counterpart (in words): repeated experiment, Table 4, vs cilostazol (106, 100) or dehydrocilostazol (110)
Protocol: Human liver microsomes (20 mg/mL) were obtained from Xenotech, LLC (Lenexa, Kans.). β-nicotinamide adenine dinucleotide phosphate, reduced form (NADPH), magnesium chloride (MgCl2), and dimethyl sulfoxide (DMSO) were purchased from Sigma-Aldrich.
7.5 mM stock solutions of test compounds, as well as cilostazol and 7-ethoxycoumarin (as a positive control) were prepared in DMSO. The 7.5 mM stock solutions were diluted to 50 μM in acetonitrile (ACN). The 20 mg/mL human liver microsomes were diluted to 0.625 mg/mL in 0.1 M potassium phosphate buffer, pH 7.4, containing 3 mM MgCl2. The diluted microsomes were added to wells of a 96-well deep-well polypropylene plate in triplicate. Ten μL of the 50 μM test compound was added to the microsomes and the mixture was pre-warmed for 10 minutes. Reactions were initiated by addition of pre-warmed NADPH solution. The final reaction volume was 0.5 mL and contained 0.5 mg/mL human liver microsomes, 1 μM test compound, and 2 mM NADPH in 0.1 M potassium phosphate buffer, pH 7.4, and 3 mM MgCl2. The reaction mixtures were incubated at 37° C., and 50 μL aliquots were removed at 0, 5, 10, 20, and 30 minutes and added to shallow-well 96-well plates which contained 50 μL of ice-cold ACN with internal standard to stop the reactions. The plates were stored at 4° C. for 20 minutes after which 100 μL of water was added to the wells of the plate before centrifugation to pellet precipitated proteins. Supernatants were transferred to another 96-well plate and analyzed for amounts of parent remaining by LC-MS/MS using an Applied Bio-systems API 4000 mass spectrometer.
The in vitro t1/2s for test compounds were calculated from the slopes of the linear regression of % parent remaining (ln) vs incubation time relationship: in vitro t1/2=0.693/k, where k=−[slope of linear regression of % parent remaining(ln) vs incubation time]. Data analysis was performed using Microsoft Excel Software.

## O=C1CCc2cc(OCCCCc3nnnn3C3CCCCC3)ccc2N1 [Cilostazol, 6-[4-(1-Cyclohexyl-1H-tetrazol-5-yl)butoxy]-3,4-dihydro-2(1H)-quinolinone]
First experiment (Table 3)
  half-life at 1 μM: 0.78 h
Repeated experiment (Table 4)
  In vitro half-life t1/2 in human liver microsomes: 1.03 h

## [2H]C1([2H])C(=O)Nc2ccc(OCCCCc3nnnn3C3([2H])C([2H])([2H])C([2H])([2H])C([2H])([2H])C([2H])([2H])C3([2H])[2H])cc2C1([2H])[2H] [Compound 100, 6-(4-(1-(Cyclohexyl-d11)-1H-tetrazol-5-yl)butoxy)-3,3,4,4-d4-dihydroquinolin-2(1H)-one]
First experiment (Table 3)
  In vitro half-life t1/2 in human liver microsomes: 0.695 h
Previous (first) experiment, Table 3
  stabilization in human liver microsomes (in words): no stabilization
Repeated experiment (Table 4)
  In vitro half-life t1/2 in human liver microsomes: 1.64 h
  stabilization in comparison to undeuterated counterpart (in words): stabilized

## [2H]C1([2H])CCC(n2nnnc2CCCCOc2ccc3c(c2)C([2H])([2H])C([2H])([2H])C(=O)N3)CC1 [Compound 101, 6-(4-(1-(4,4-d2-Cyclohexyl)-1H-tetrazol-5-yl)butoxy)-3,3,4,4-d4-dihydroquinolin-2(1H)-one]
First experiment (Table 3)
  half-life at 1 μM: 0.753 h

## [2H]C1([2H])C([2H])([2H])C([2H])([2H])C([2H])(n2nnnc2CCCCOc2ccc3c(c2)CCC(=O)N3)C([2H])([2H])C1([2H])[2H] [Compound 106, 6-(4-(1-(Cyclohexyl-d11)-1H-tetrazol-5-yl)butoxy)-3,4-dihydroquinolin-2(1H)-one]
First experiment (Table 3)
  half-life at 1 μM: 1.32 h
Repeated experiment (Table 4)
  In vitro half-life t1/2 in human liver microsomes: 1.45 h
  stabilization in comparison to undeuterated counterpart (in words): stabilized

## [2H]C1([2H])CCC(n2nnnc2CCCCOc2ccc3c(c2)CCC(=O)N3)CC1 [Compound 107, 6-(4-(1-(4,4-d2-Cyclohexyl)-1H-tetrazol-5-yl)butoxy)-3,4-dihydroquinolin-2(1H)-one]
First experiment (Table 3)
  half-life at 1 μM: 0.595 h

## [2H]C1([2H])C([2H])([2H])C([2H])([2H])C([2H])(n2nnnc2CCCCOc2ccc3[nH]c(=O)ccc3c2)C([2H])([2H])C1([2H])[2H] [Compound 110]
First experiment (Table 3)
  half-life at 1 μM: 1.24 h
Repeated experiment (Table 4)
  In vitro half-life t1/2 in human liver microsomes: Stable*
  stabilization in comparison to undeuterated counterpart (in words): stabilized

## [2H]C1([2H])CC(n2nnnc2CCCCOc2ccc3c(c2)CCC(=O)N3)CC([2H])([2H])C1([2H])[2H] [Compound 112, 6-(4-(1-(3,3,4,4,5,5-d6-Cyclohexyl)-1H-tetrazol-5-yl)butoxy)-3,4-dihydroquinolin-2(1H)-one]
Repeated experiment (Table 4)
  half-life at 1 μM: 1.32 h

## [2H]C1([2H])CC(n2nnnc2CCCCOc2ccc3[nH]c(=O)ccc3c2)CC([2H])([2H])C1([2H])[2H] [Compound 113, 6-(4-(1-(3,3,4,4,5,5-d6-Cyclohexyl)-1H-tetrazol-5-yl)butoxy)-3,4-dihydroquinolin-2(1H)-one]
Repeated experiment (Table 4)
  half-life at 1 μM: 1.49 h

## O=c1ccc2cc(OCCCCc3nnnn3C3CCCCC3)ccc2[nH]1 [Dehydrocilostazol, reference compound]
Repeated experiment (Table 4)
  half-life at 1 μM: 1.31 h

Reference: patent US8765723B2, “Analogues of cilostazol” (CoNCERT Pharmaceuticals Inc., priority 2007, dated 2014)
